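Grown in 96-well plates, cells were treated for 48 hours with each compound at five concentrations. Insufficient inhibition: endpoint recorded as highest concentration tested. GI50: concentration for 50% inhibition of growth.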 The source made the active and inactive calls. Cut-off read from the data, not from the text of the source: active = GI50 up to about 1.1 µM and inactive = higher.
Columns and labels:
Test in all cases: growth of human tumour cells (NCI), 48 h
ACHN = system: ACHN
HCT-116 = system: HCT-116
LOX IMVI = system: LOX IMVI
M14 = system: M14
MDA-MB-435 = system: MDA-MB-435
Malme-3M = system: Malme-3M
OVCAR-3 = system: OVCAR-3
OVCAR-5 = system: OVCAR-5
PC-3 = system: PC-3
RXF 393 = system: RXF 393
SF-268 = system: SF-268
SK-MEL-2 = system: SK-MEL-2
SK-MEL-5 = system: SK-MEL-5
SN12C = system: SN12C
T47D = system: T47D
TK-10 = system: TK-10
UACC-257 = system: UACC-257
UACC-62 = system: UACC-62
HOP-92 = system: HOP-92
RPMI-8226 = system: RPMI-8226

## COc1ccc(Oc2nc(C#CC(C)(C)O)nc(Oc3ccc(OC)cc3)n2)cc1
ACHN
  GI50: 1.69 µM (inactive)
HCT-116
  GI50: 2.82 µM (inactive)
LOX IMVI
  GI50: 1.39 µM (inactive)
M14
  GI50: 2.2 µM (inactive)
MDA-MB-435
  GI50: 4.44 µM (inactive)
Malme-3M
  GI50: 16.2 µM (inactive)
OVCAR-3
  GI50: 2.1 µM (inactive)
OVCAR-5
  GI50: 4.72 µM (inactive)
PC-3
  GI50: 2.52 µM (inactive)
RXF 393
  GI50: 1.39 µM (inactive)
SF-268
  GI50: 9.08 µM (inactive)
SK-MEL-2
  GI50: 6.73 µM (inactive)
SK-MEL-5
  GI50: 14.5 µM (inactive)
SN12C
  GI50: 13.9 µM (inactive)
T47D
  GI50: 4.53 µM (inactive)
TK-10
  GI50: 12.6 µM (inactive)
UACC-257
  GI50: 17.9 µM (inactive)
UACC-62
  GI50: 11.6 µM (inactive)

## COC(=O)c1cc(CNCCc2c[nH]c3ccccc23)on1
ACHN
  GI50: > 60.8 µM (inactive)
HCT-116
  GI50: > 100 µM (inactive)
HOP-92
  GI50: 92.5 µM (inactive)
LOX IMVI
  GI50: > 100 µM (inactive)
M14
  GI50: > 100 µM (inactive)
Malme-3M
  GI50: > 100 µM (inactive)
OVCAR-3
  GI50: > 100 µM (inactive)
OVCAR-5
  GI50: > 100 µM (inactive)
PC-3
  GI50: > 100 µM (inactive)
RPMI-8226
  GI50: > 100 µM (inactive)
RXF 393
  GI50: > 66.8 µM (inactive)
SF-268
  GI50: > 100 µM (inactive)
SK-MEL-2
  GI50: > 100 µM (inactive)
SK-MEL-5
  GI50: > 100 µM (inactive)
SN12C
  GI50: > 100 µM (inactive)
T47D
  GI50: > 100 µM (inactive)
TK-10
  GI50: > 100 µM (inactive)
UACC-257
  GI50: > 100 µM (inactive)
UACC-62
  GI50: > 100 µM (inactive)

## CCCNC1=Nc2ccccc2N(Cc2ccccc2)CC1
ACHN
  GI50: 23.2 µM (inactive)
HCT-116
  GI50: 29.7 µM (inactive)
M14
  GI50: 14.3 µM (inactive)
MDA-MB-435
  GI50: 19.1 µM (inactive)
Malme-3M
  GI50: 10.3 µM (inactive)
OVCAR-3
  GI50: 32.4 µM (inactive)
OVCAR-5
  GI50: 40.2 µM (inactive)
PC-3
  GI50: 19.3 µM (inactive)
RPMI-8226
  GI50: 12.9 µM (inactive)
RXF 393
  GI50: 11.6 µM (inactive)
SF-268
  GI50: 15.7 µM (inactive)
SK-MEL-2
  GI50: 17 µM (inactive)
SK-MEL-5
  GI50: 15 µM (inactive)
SN12C
  GI50: 31.5 µM (inactive)
TK-10
  GI50: 27.8 µM (inactive)
UACC-257
  GI50: 14.4 µM (inactive)
UACC-62
  GI50: 13.5 µM (inactive)

## CCN(CC)CCSc1nc2cccc([N+](=O)[O-])c2[nH]1
HOP-92
  GI50: 33.4 µM (inactive)
LOX IMVI
  GI50: > 100 µM (inactive)
M14
  GI50: > 100 µM (inactive)
OVCAR-3
  GI50: > 100 µM (inactive)
RPMI-8226
  GI50: > 100 µM (inactive)
RXF 393
  GI50: > 100 µM (inactive)
SK-MEL-5
  GI50: > 100 µM (inactive)
SN12C
  GI50: > 100 µM (inactive)
TK-10
  GI50: > 100 µM (inactive)
UACC-257
  GI50: > 100 µM (inactive)
UACC-62
  GI50: > 100 µM (inactive)

## Cn1c2c([N+](=O)[O-])[se]nc2c(=O)n1-c1ccc([N+](=O)[O-])cc1
ACHN
  GI50: 1.95 µM (inactive)
HCT-116
  GI50: 0.887 µM (active)
HOP-92
  GI50: 1.63 µM (inactive)
LOX IMVI
  GI50: 2.61 µM (inactive)
M14
  GI50: 1.29 µM (inactive)
Malme-3M
  GI50: 1.75 µM (inactive)
OVCAR-3
  GI50: 1.73 µM (inactive)
OVCAR-5
  GI50: 2.12 µM (inactive)
RPMI-8226
  GI50: 1.82 µM (inactive)
RXF 393
  GI50: 0.665 µM (active)
SF-268
  GI50: 2.21 µM (inactive)
SK-MEL-2
  GI50: 3.34 µM (inactive)
SK-MEL-5
  GI50: 4.43 µM (inactive)
SN12C
  GI50: 1.71 µM (inactive)
TK-10
  GI50: 7.55 µM (inactive)
UACC-257
  GI50: 1.96 µM (inactive)
UACC-62
  GI50: 1.6 µM (inactive)

## NC(=O)c1ncn(C2OC(CO)C(O)C2O)c1NC(=S)NC(=O)c1ccccc1 (stereo not drawn)
ACHN
  GI50: > 100 µM (inactive)
HCT-116
  GI50: > 100 µM (inactive)
HOP-92
  GI50: > 100 µM (inactive)
LOX IMVI
  GI50: > 100 µM (inactive)
M14
  GI50: > 100 µM (inactive)
Malme-3M
  GI50: > 100 µM (inactive)
OVCAR-3
  GI50: > 100 µM (inactive)
OVCAR-5
  GI50: > 100 µM (inactive)
RPMI-8226
  GI50: > 100 µM (inactive)
RXF 393
  GI50: > 100 µM (inactive)
SF-268
  GI50: > 100 µM (inactive)
SK-MEL-2
  GI50: > 100 µM (inactive)
SK-MEL-5
  GI50: > 100 µM (inactive)
SN12C
  GI50: > 100 µM (inactive)
TK-10
  GI50: > 100 µM (inactive)
UACC-257
  GI50: > 100 µM (inactive)
UACC-62
  GI50: > 100 µM (inactive)

## Cc1cc(C)nc(NS(=O)(=O)c2ccc(Nc3c4ccccc4nc4c(C(=O)N5CCN(CCOS(C)(=O)=O)CC5)ccc(Cl)c34)cc2)n1
ACHN
  GI50: > 100 µM (inactive)
HCT-116
  GI50: > 100 µM (inactive)
HOP-92
  GI50: > 100 µM (inactive)
M14
  GI50: 38 µM (inactive)
Malme-3M
  GI50: > 100 µM (inactive)
OVCAR-3
  GI50: > 100 µM (inactive)
OVCAR-5
  GI50: > 100 µM (inactive)
RPMI-8226
  GI50: > 100 µM (inactive)
RXF 393
  GI50: > 100 µM (inactive)
SF-268
  GI50: > 100 µM (inactive)
SK-MEL-2
  GI50: > 100 µM (inactive)
SK-MEL-5
  GI50: > 100 µM (inactive)
SN12C
  GI50: > 100 µM (inactive)
TK-10
  GI50: 54.1 µM (inactive)
UACC-257
  GI50: > 100 µM (inactive)
UACC-62
  GI50: > 100 µM (inactive)

## CCCc1onc(CCC(=O)N(Cc2ccccc2)Cc2ccccc2)c1CC
ACHN
  GI50: > 100 µM (inactive)
HOP-92
  GI50: 48.8 µM (inactive)
LOX IMVI
  GI50: > 100 µM (inactive)
M14
  GI50: > 100 µM (inactive)
Malme-3M
  GI50: > 100 µM (inactive)
OVCAR-3
  GI50: > 100 µM (inactive)
OVCAR-5
  GI50: > 100 µM (inactive)
RPMI-8226
  GI50: > 100 µM (inactive)
SF-268
  GI50: > 100 µM (inactive)
SK-MEL-2
  GI50: > 100 µM (inactive)
SN12C
  GI50: > 100 µM (inactive)
UACC-257
  GI50: > 100 µM (inactive)
UACC-62
  GI50: > 100 µM (inactive)

— ChEMBL document CHEMBL1201862, “PubChem BioAssay data set” (2004)
